Results reported in PMC3281693 (The Journal of Biological Chemistry, 2011).

T1: Rpm1-NBARC (Arabidopsis thaliana, UniProt Q39214)
T1 sequence (Q39214 177-519): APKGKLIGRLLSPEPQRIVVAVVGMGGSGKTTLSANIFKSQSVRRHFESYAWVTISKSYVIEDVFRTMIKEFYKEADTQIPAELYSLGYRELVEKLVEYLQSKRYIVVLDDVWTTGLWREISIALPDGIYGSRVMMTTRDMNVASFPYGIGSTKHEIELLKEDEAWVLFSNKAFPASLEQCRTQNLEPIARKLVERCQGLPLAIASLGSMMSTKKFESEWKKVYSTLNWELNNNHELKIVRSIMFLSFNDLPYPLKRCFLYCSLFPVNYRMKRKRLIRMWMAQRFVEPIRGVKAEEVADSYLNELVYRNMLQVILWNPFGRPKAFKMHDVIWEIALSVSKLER

B1: E. coli catabolite-activated protein (CAP) (natural protein, UniProt P0ACJ8 1-210, looked up)
chain: MVLGKPQTDPTLEWFLSHCHIHKYPSKSTLIHQGEKAETLYYIVKGSVAVLIKDEEGKEMILSYLNQGDFIGELGLFEEGQERSAWVRAKTACEVAEISYKKFRQLIQVNPDILMRLSAQMARRLQVTSEKVGNLAFLDVTGRIAQTLLNLAKQPDAMTHPDGMQIKITRQEIGQIVGCSRETVGRILKMLEDQNLISAHGKTIVVYGTR

Experiments:
Rpm1-NBARC = biological target: T1, Rpm1-NBARC; conditions: 100 μM ATP, 10 nM protein; MgCl2, pH 7.5
cross-linking = biological target: the molecule itself; assay: cross-linking

Row | Molecule | nucleotide phosphatase assay, HPLC (Rpm1-NBARC) | stoichiometry N (cross-linking)
1 | Nc1ncnc2c1ncn2[C@@H]1O[C@H](COP(=O)(O)OP(=O)(O)OP(=O)(O)O)[C@@H](O)[C@H]1O [ATP] | Rpm1-NBARC catalyzed the production of Ado from ATP and ADP | 
2 | B1 |  | 2
